Experiments:
[1] = system: CDAHFD induced NAFLD progression in mice; experiment: Dose dependent effect of TOFA in CDAHFD-induced NAFLD progression in mice; type: in vivo; settings: 3 weeks
Procedure: Six-week-old C57BL/6 male mice were fed with a L-Amino Acid Diet With 60 kcal % Fat With 0.1% Methionine and No Added Choline (Research Diets A06071302i) for three weeks before introduction of either vehicle (control) or TOFA via oral gavage for an additional three weeks (FIG. 1a). Mice were gavaged orally twice daily with varying doses of TOFA (0, 25, 50, 125, or 250 mg/kg per day). Upon study termination at six weeks, serum and liver samples were collected. Serum liver damage biomarkers, alanine transaminase (ALT) and aspartate transaminase (AST), were measured by commercially available kits (abcam105134 and abcam 105135, respectively). Hepatic triglycerides were detected from liver samples from a commercially available kit (abcam65336). Liver samples were also scored for degree of hepatic steatosis based on their hematoxylin and eosin (H&E) staining.

[2] = system: 60% kcal fat diet induced metabolic syndrome and early stage NAFLD in mice; experiment: Rescue effect of TOFA in 60% kcal fat diet induced early-stage hepatic steatosis and associated metabolic disorders; type: in vivo, C57BL/6 male mice
Procedure: Six-week-old C57BL/6 male mice were fed with a 60 kcal % fat diet (Research Diets A12492i) for seven weeks before introduction of either vehicle (control) or 250 mg/kg initial loading dose of TOFA daily via twice daily oral gavage for one week (FIG. 2A). Mice were then treated with either vehicle (control) or 125 mg/kg maintenance dose of TOFA daily via twice daily gavage for three additional weeks. Mice weights were tracked during the entire time course. After three weeks of treatment, an intraperitoneal glucose tolerance test (IP-GTT) and insulin tolerance test (IP-ITT) were performed. Prior to these tests, mice were fasted for six hours before a challenge of either 1 g/kg D-glucose or 0.75 U/kg HumulinR (Eli Lilly) and blood glucose levels were monitored for two hours (Bayer Contour Next). Venous fasting blood was collected through the tail vein and used to measure fasting insulin levels by commercially available ELISA kits (CrystalChem90080). Prior to harvest, mice underwent whole body composition analysis (EchoMRI™ 2012). Upon study termination at 11 weeks, serum and liver samples were collected. Serum liver damage biomarkers, ALT and AST, were measured by commercially available kits (abcam 105134 and abcam105135, respectively). Hepatic and serum triglyceride levels were measured from a commercially available kit (abcam65336).

[3] = system: PPAR signaling pathway; experiment: RNA sequencing, qPCR and western blot of liver samples from CDAHFD late stage NAFLD/NASH mice; type: in vivo, C57BL/6 male mice
Procedure: Six-week-old C57BL/6 male mice were fed with a L-Amino Acid Diet With 60 kcal % Fat With 0.1% Methionine and No Added Choline (Research Diets A06071302i) for eight weeks before introduction of either vehicle (control) or 250 mg/kg of TOFA daily via twice daily controlled oral gavage for an additional four weeks (FIG. 3A). Upon study termination at 12 weeks, serum and liver samples were collected. Serum liver damage biomarkers, ALT and AST, were measured by commercially available kits (abcam105134 and abcam 105135, respectively). Hepatic and serum triglyceride levels were measured from a commercially available kit (abcam65336). Liver samples were fixed in 4% paraformaldehyde and embedded in paraffin blocks for sectioning and subsequently stained with hematoxylin and eosin (H&E) or Picrosirius Red with a fast green dye background. Frozen fresh liver tissue was embedded in OCT, sectioned, and subsequently stained with Oil Red O.
Liver samples were collected from mice in Example 3 (see above). Total RNA was extracted from liver tissues (Qiagen RNeasy kit), cDNA libraries were constructed (Roche KAPA HyperPrep kit), sequenced on the NovaSeq6000 platform (Novogene), and a downstream analysis pipeline was performed. Differentially expressed genes (DEGs) were defined by at least one log2-fold change (2-fold in linear scale) with an FDR cutoff of 0.05. For validation, total RNA was used to prepare cDNA (BioRAD iScript™ Reverse Transcription) according to manufacturer's protocol and quantitative polymerase chain reaction (qPCR) was performed with fast SYBR Green Mix (ThermoFisher) on the QuantStudio6 System (Applied Biosystems). Protein expression levels were measured by western blot using antibodies against very low density lipoprotein receptor (VLDLR) (AF2258, 1:2000) and btubulin (CST2146, 1:1000). Membranes were developed using a horse radish peroxidase (HRP) secondary antibody (1:5000) and visualized using an enhanced chemiluminescent HRP substrate (Thermo34577).

[4] = system: CDAHFD mouse model of diet-induced NAFLD/NASH; experiment: TOFA and Semaglutide single agent and combination in CDAHFD mouse model of NAFLD/NASH; type: in vivo, C57BL/6J male mice
Procedure: Six-week-old C57BL/6J male mice were fed with a L-amino acid diet with 60 kcal % fat with 0.1% methionine and no added choline (CDAHFD; Research Diets A06071302i) for eight weeks. Mice were randomly assigned to treatment groups of either a vehicle (control), 250 mg/kg of TOFA, 5 nmol/kg of Semaglutide (Novo Nordisk), or a combined dose of 250 mg/kg TOFA plus 5 nmol/kg Semaglutide. TOFA was administered by oral gavage. Semaglutide dosing was up-titrated at beginning of treatment regimen and was delivered via subcutaneous injection at the back shoulder/neck flank. All treatments were delivered QD for an additional four weeks. Mice weights and food intake were monitored during the treatment time course. Upon study termination at 12 weeks, liver and serum samples were collected. Serum liver damage biomarkers, ALT and AST, were measured by commercially available kits (abcam105134 and Cayman 701640, respectively). Hepatic and serum triglyceride levels were measured using a commercially available kit (abcam65336). Total RNA was extracted from liver tissues (Qiagen RNeasy kit 74106), and cDNA was prepared (BioRAD iScript™ Reverse Transcription) according to manufacturer's protocols. Quantitative PCR (qPCR) was performed with fast SYBR Green Mix (ThermoFisher A25742) on the QuantStudio6 System (Applied Biosciences). Additional liver samples were fixed in 4% paraformaldehyde and embedded in paraffin blocks for sectioning and subsequently stained with hematoxylin and eosin (H&E) or Sirius Red with a fast green dye background.

[5] = TOFA 0, 25, 50, 125, or 250 mg/kg per day, oral gavage twice daily
[6] = 250 mg/kg daily 1 week then 125 mg/kg daily 3 weeks, twice daily oral gavage
[7] = liver samples of Example 3, RNA-seq
[8] = four weeks, TOFA 250 mg/kg oral QD, Semaglutide 5 nmol/kg s.c. QD

## CCCCCCCCCCCCCCOc1ccc(C(=O)O)o1 [TOFA, 5-(Tetradecyloxy)-2-furoic acid]
[1]; [5]
  degree of hepatic steatosis (H&E score): decreased degree of hepatic steatosis correlating to an increased dosage of TOFA
  liver triglyceride contents per gram of liver: decreased in a dose dependent manner
  serum ALT activity levels: dose dependent decrease
  serum AST activity levels: dose dependent decrease
[1]; TOFA up to 250 mg/kg per day, oral
  tolerability: well tolerated
[2]; [6]
  body weight: weight loss compared to the vehicle control treated mice
  fat mass relative to whole body weight (EchoMRI): significant reduction of fat mass
  food intake: without impacting food intake
  lean mass relative to whole body weight (EchoMRI): increase in lean mass
[2]; after three weeks of treatment, 6 h fast
  fasting blood glucose levels: vast improvements
[2]; after three weeks of treatment, 6 h fast, 0.75 U/kg HumulinR
  insulin tolerance test (IP-ITT): improved insulin sensitivity
[2]; after three weeks of treatment, 6 h fast, 1 g/kg D-glucose
  intraperitoneal glucose tolerance test (IP-GTT): more glucose tolerant
[2]; after three weeks of treatment, ELISA
  fasting insulin levels: significantly lower
[2]; study termination at 11 weeks
  hepatic levels of triglycerides: significantly reduced
  serum ALT: no significant changes
  serum AST: no significant changes
  serum levels of triglycerides: significantly reduced
[3]; liver samples of Example 3
  protein expression levels of VLDLR (western blot): increase in protein expression levels
[3]; [7]
  GSEA: inflammatory response: negative correlation
  GSEA: oxidative phosphorylation, fatty acid metabolism, peroxisomes: significantly upregulated
  genes of the PPAR signaling pathway (2021 KEGG human database): upregulated various genes under PPAR transcriptional control
[3]; liver samples of Example 3, relative to r18S mRNA
  expression of VLDLR gene (mRNA, qPCR): significant increase
[3]; liver samples of Example 3, FDR cutoff 0.05, 2-fold change
  highest upregulated genes (RNA-seq of liver): canonical PPAR-alpha target genes
[4]; four weeks treatment
  food intake: not due to changes in food intake
[4]; [8]
  body weight at the end of the treatment time course: smaller degree of weight loss compared to Semaglutide treated mice
  inflammation genes (RT-qPCR of liver samples): specific response of TOFA in addressing inflammation
  mRNA levels of genes involved in collagen biosynthesis (RT-qPCR): strong repressive effectives
  serum ALT levels: moderate reductions
  serum AST levels: only group to have demonstrated reduction
[4]; four weeks, liver sections
  fibrotic content (Sirius red staining): aforementioned histological trends are noted
[4]; four weeks, relative to control
  steatosis (H&E liver sections): greater reduction in steatosis
[4]; four weeks, relative to vehicle control
  liver triglyceride levels: stronger, significant reduction

Reference: patent US20260034091A1, “Compositions and Methods for Treating Metabolic Disorders” (The Regents of the University of California, priority 2022, published 2026)
